{"source": "patent US20230226016A1", "about": "“AGENTS AND METHODS FOR TREATING TAUOPATHIES” (The Regents of University of California, priority 2020, published 2023)", "key": {"AD crude brain extracts": {"tested_on": "AD crude brain extracts", "test": "Seeding by crude AD brain extract pre-treated with inhibitor, tau biosensor cells (Example 5)", "format": "cell-based, human", "conditions": "10 μM final on cells, pre-incubated 16-18 hours", "text": "(A) Seeding by crude AD brain extract pre-treated with EGCG or experimental linker-conjugated analogs, as indicated. Inhibitor activity is read-out by measuring seeding in tau biosensor cells. Seeding is taken as a proxy for the fibril load that is contained within the AD crude brain extracts. Reduction in fibril load following treatment with experimental linker-conjugated analogs of EGCG reduces prion-like seeding by AD-tau nearly as effectively as EGCG itself. (B) Representative fluorescence images of tau biosensor cells experiments from A. Intracellular aggregates seeded by crude AD brain extracts are identified as puncta (green dots in the “No inhibitor” treated sample, left fluorescence micrograph). Inhibitor treatment reduces the number of puncta (right fluorescence micrograph). The number of puncta as a function of inhibitor pre-treatment is plotted in A.\nWe next tested if the D-ring site of triazole-linked amino PEGylation would interfere with tau fibril disaggregation observed for EGCG. […] Crude extract of autopsied brain tissue of a donor with AD (prepared as described in the SI) were pre-incubated with inhibitors (10 μM final concentration on cells) for 16-18 hours and resulting homogenates were added to the cells for imaging 3 days later."}, "[1]": {"molecular_target": "fibrils of recombinant tau40 (Homo sapiens, UniProt P10636)", "sequence (P10636 1-441 isoform P10636-8)": "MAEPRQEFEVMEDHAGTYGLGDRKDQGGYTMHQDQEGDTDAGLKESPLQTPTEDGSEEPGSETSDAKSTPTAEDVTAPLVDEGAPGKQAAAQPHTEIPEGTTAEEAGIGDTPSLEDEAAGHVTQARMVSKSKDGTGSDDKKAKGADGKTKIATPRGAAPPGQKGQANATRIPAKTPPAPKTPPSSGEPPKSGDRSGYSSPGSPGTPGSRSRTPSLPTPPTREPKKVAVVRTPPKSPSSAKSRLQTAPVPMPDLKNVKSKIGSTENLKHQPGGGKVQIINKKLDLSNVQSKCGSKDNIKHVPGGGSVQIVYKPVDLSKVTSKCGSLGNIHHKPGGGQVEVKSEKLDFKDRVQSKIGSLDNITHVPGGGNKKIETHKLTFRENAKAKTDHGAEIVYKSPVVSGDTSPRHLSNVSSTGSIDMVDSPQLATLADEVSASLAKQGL", "test": "EGCG dose dependence on seeding in tau biosensor cells, fibrils of recombinant tau40 as seeds", "experimental": "Error bars show the standard deviation of triplicate measurements. […] (e) EGCG dose dependence on seeding by fibrils of recombinant tau40. Seeding (expressed as 10 power) was measured as in a, and IC50 values were calculated from dose-response plots.\nAfter twenty minutes, 10 μl of fibrils were added to 90 μl of tau biosensor cells. The number of seeded aggregates was determined by imaging the entire well of a 96-well plate in triplicate using a Celigo Image Cytometer (Nexcelom) in the YFP channel. Aggregates were counted using ImageJ^45 by subtracting the background fluorescence from unseeded cells and then counting the number of peaks with fluorescence above background using the built-in Particle Analyzer. The number of aggregates was normalized to the confluence of each well, and dose-response plots were generated by calculating the average and standard deviations from triplicate measurements. For high quality images, cells were photographed on a ZEISS Axio Observer D1 fluorescence microscope using the YFP fluorescence channel."}, "PHFE2 fibrils": {"molecular_target": "PHFE2 fibrils (Homo sapiens, UniProt P10636)", "test": "ThT measurement of PHFE2 peptide fibrils", "conditions": "5 mM EGCG, 30 mM fibrils, 30 min incubation", "experimental": "(c) ThT signal of fibrils formed from PHFE2 peptide without EGCG, or following 30 min incubation. Error bars show the standard deviation of triplicate measurements.\nFibrils were grown at 37° C. in an orbital shaker with shaking at 350 rpm for 3-4 weeks. Solutions were removed from shaking and heat upon appearance of fibrils, confirmed by negative stain EM. For ThT experiments, fibrils were diluted to 30 mM in PBS, and ThT was added to a final concentration of 40 μM. EGCG was added from a concentrated stock to a final concentration of 5 mM where indicated. ThT measurements were carried out as described above, except readings were taken from a 384-well plate with a volume of 35 μl."}, "[2]": {"tested_on": "tau fibrils purified from AD brain", "test": "Inhibition of seeding in tau-K18 biosensor cells, AD brain purified tau fibrils as seeds", "conditions": "10 μM inhibitor, overnight preincubation, seeding measured 3 days after transfection", "experimental": "(§2) (a) Seeding following overnight preincubation of AD brain purified tau fibrils with a final inhibitor concentration of 10 μM. Seeding was measured 3 days after transfecting biosensor cells with fibril-inhibitor complexes. […] Error bars show the standard deviation of triplicate measurements. […] Seeding (expressed as 10 power) was measured as in a, and IC50 values were calculated from dose-response plots. […] Each column represents the inhibitor response of a different donor. Inhibitor concentrations were 10 μM. Responses to inhibitors were normalized to seeding in the absence of inhibitor, abbreviated “No Inh”, and normalized seeding values for each inhibitor were plotted from maximal inhibitor response (low fractional seeding, left) to minimal response (seeding approaching a value of 1.0, right) for each of the indicated inhibitors.\n(§3) After twenty minutes, 10 μl of fibrils were added to 90 μl of tau biosensor cells. The number of seeded aggregates was determined by imaging the entire well of a 96-well plate in triplicate using a Celigo Image Cytometer (Nexcelom) in the YFP channel. Aggregates were counted using ImageJ^45 by subtracting the background fluorescence from unseeded cells and then counting the number of peaks with fluorescence above background using the built-in Particle Analyzer. […]"}, "[3]": {"molecular_target": "T1, recombinant tau-K18+ fibrils (Homo sapiens, UniProt P10636)", "T1 sequence (P10636 561-697)": "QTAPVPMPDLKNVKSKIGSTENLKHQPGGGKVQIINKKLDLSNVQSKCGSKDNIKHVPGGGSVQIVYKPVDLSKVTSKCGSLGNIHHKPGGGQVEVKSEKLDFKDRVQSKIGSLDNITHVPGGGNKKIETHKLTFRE", "test": "Negative stain electron microscopy of recombinant tau fibrils", "conditions": "75 μM fibrils, two-fold molar excess of EGCG, 3 hr, room temperature", "procedure": "(§1) (a) Isothermal titration calorimetry (ITC) of 750 μM EGCG into 75 μM recombinant tau-K18+ fibrils. The binding isotherm was fit using a standard 1 site binding model. (b) ThT assay showing the effect EGCG or negative control, doxycycline, have on the aggregation of 20 μM tau-K18+ monomer^33, a construct that contains all of the residues that are observed in the AD tau fibril core^7,9. Note the sudden drop in ThT signal at 10 hrs (marked by a red arrow) for the sample containing EGCG. (c) Negative stain electron micrographs of 75 μM recombinant tau-K18+ fibrils prior to incubation with EGCG (top) or following 1 or 3 hour incubation with a two-fold molar excess of EGCG at room temperature, as indicated. (d) As in c except EGCG micrographs of tau are of fibrils purified from AD brain tissue and EGCG treatments were carried out at a concentration of 100 μM for a 3 hour or overnight duration at 37° C., as indicated."}, "[4]": {"molecular_target": "T1, recombinant tau-K18+ fibrils", "test": "Isothermal titration calorimetry (ITC)", "conditions": "750 μM EGCG into 75 μM fibrils, 1 site binding model", "procedure": "as §1\nHuman Tau tau-K18+(residues Q244-E380 of 4R tau) was expressed in a pNG2 vector in BL21-Gold E. coli cells grown in LB to an OD600=0.8. Cells were induced with 0.5 mM IPTG for 3 hours at 37° C. and lysed by sonication in 20 mM MES buffer (pH 6.8) with 1 mM EDTA, 1 mM MgCl2, 1 mM DTT and HALT protease inhibitor before addition of NaCl 500 mM final concentration. […]"}, "[5]": {"tested_on": "tau fibrils purified from AD brain tissue", "test": "Negative stain electron microscopy of AD brain-derived tau fibrils", "design": "species or system human", "conditions": "100 μM EGCG, overnight, 37° C.", "procedure": "as §1\nTo prepare specimens of AD brain-derived tau fibrils for structural studies, we examined negatively stained EM grids of purified tau fibrils from the frontal cortex of AD donor 1 (FIG. 1a) at various times following incubation with EGCG. AD brain-derived tau fibrils were more robust than recombinant tau fibrils and disaggregation was accelerated by incubation at 37° C. […]"}, "tau-K18+ monomer": {"molecular_target": "T2, tau-K18+ monomer (Homo sapiens, UniProt P10636)", "T2 construct": "Human Tau tau-K18+(residues Q244-E380 of 4R tau); made in house; host or cells: E. coli BL21-Gold, pNG2 vector", "T2 sequence (P10636 561-697)": "as above", "test": "ThT aggregation kinetics assay", "format": "biochemical", "conditions": "20 μM tau-K18+ monomer, equimolar inhibitor", "procedure": "as §1\nConcentrated tau-K18+ was diluted into PBS buffer (pH 7.4) to a final concentration of 20 μM with an equimolar ratio of indicated small molecule inhibitor. […] ThT fluorescence was measured with excitation and emission wavelengths of 440 and 480 nm, and averaged curves were generated from triplicate measurements as indicated in the figure legend. […]"}, "[6]": {"tested_on": "crude brain extracts from donors with PSP", "test": "Inhibition of seeding by crude PSP brain extracts in tau biosensor cells", "conditions": "10 μM, N=7 donors", "experimental": "as §2, §3"}, "[7]": {"tested_on": "crude brain extracts from donors with AD", "test": "Inhibition of seeding by crude AD brain extracts in tau biosensor cells", "conditions": "10 μM", "experimental": "as §2, §3"}, "crude AD brain extract": {"tested_on": "crude AD brain extract", "test": "Seeding by crude AD brain extract in tau biosensor cells, Ferumoxytol conjugates, no pre-incubation", "format": "cell-based, human", "conditions": "mixed with extract and immediately transfected", "text": "(A) Seeding by crude AD brain extract measured in tau biosensor cells that were co-transfected with nanoparticles coupled to EGCG by linkers of varying length. (B-C) Negative-stain electron micrographs of EGCG-conjugated and non-conjugated nanoparticles. Nanoparticle coupled with EGCG analog 5c (B) cluster with fibrils of AD-tau. No clustering is seen between non-conjugated nanoparticles and AD-tau fibrils (C).\nWe tested the activity of Ferumoxytol conjugated EGCG analogs using the biosensor cell assay described above, except we omitted the pre-incubation step such that our assay more closely resembled the scenario of therapeutic intervention, for which there is no pre-incubation period. Nanoparticle conjugated EGCG derivative was mixed with crude AD brain extract and immediately transfected into tau biosensor cells."}}}
{"smiles": "O=C(O[C@@H]1Cc2c(O)cc(O)cc2O[C@@H]1c1ccc(O)c(O)c1)c1cc(O)c(O)c(O)c1", "note": "[ECG]", "values": [{"measurement": "inhibition of seeding by AD brain extracts compared with EGCG", "setting": "AD crude brain extracts", "value": "inhibit seeding as well as the linker-conjugated analogs"}]}
{"smiles": "O=C(O[C@@H]1Cc2c(O)cc(O)cc2O[C@@H]1c1cc(O)c(O)c(O)c1)c1cc(O)c(O)c(O)c1", "note": "[EGCG, (−)-epigallocatechin gallate]", "values": [{"measurement": "IC50", "setting": "[1]", "value": 0.4, "unit": "µM"}, {"measurement": "ThT signal of PHFE2 fibrils after addition of inhibitor", "setting": "PHFE2 fibrils", "value": "eliminated nearly any measurable ThT signal"}, {"measurement": "inhibition of seeding by tau fibrils purified from AD brain", "setting": "[2]", "value": "most effective inhibitors of seeding"}, {"measurement": "disaggregation of recombinant tau fibrils (EM)", "setting": "[3]", "value": "virtually vanish"}, {"measurement": "stoichiometry N (ITC)", "setting": "[4]", "value": 0.86}, {"measurement": "Kd", "setting": "[4]; read-out: affinity (ITC)", "value": 1.6, "unit": "µM"}, {"measurement": "disaggregation of AD brain-derived tau fibrils (EM)", "setting": "[5]", "value": "most of the AD brain-derived tau fibrils are lost"}, {"measurement": "ThT signal of fibrils formed in the presence of inhibitor", "setting": "tau-K18+ monomer", "value": "abruptly fell after reaching a plateau at 10 hr"}, {"measurement": "lag time of tau aggregation (ThT)", "setting": "tau-K18+ monomer", "value": "no shift in the lag time"}, {"measurement": "blocking of seeding by crude PSP brain extracts", "setting": "[6]", "value": "near perfect efficacy"}, {"measurement": "inhibition of seeding by crude PSP brain extracts", "setting": "[6]; all patient samples", "value": "at least 50%"}, {"measurement": "fractional seeding by AD brain samples", "setting": "[7]; 15 AD crude brain extracts, normalized to no inhibitor", "value": "zero"}, {"measurement": "inhibition of seeding by crude AD brain extracts", "setting": "[7]; N=15 donors, all patient samples", "value": "at least 50%"}]}
{"smiles": "NCCOCCOCCOCCn1cc(COc2c(O)cc(C(=O)O[C@@H]3Cc4c(O)cc(O)cc4O[C@@H]3c3cc(O)c(O)c(O)c3)cc2O)nn1", "note": "[Compound 5c, (2R,3R)-5,7-dihydroxy-2-(3,4,5-trihydroxyphenyl)chroman-3-yl 4-((1-(2-(2-(2-(2-aminoethoxy)ethoxy)ethoxy)ethyl)-H-1,2,3-triazol-4-yl)methoxy)-3,5-dihydroxybenzoate]", "values": [{"measurement": "inhibition of seeding by AD brain extracts compared with EGCG", "setting": "AD crude brain extracts", "value": "potency nearly on par with EGCG itself"}]}
{"smiles": "NCCOCCn1cc(COc2c(O)cc(C(=O)O[C@@H]3Cc4c(O)cc(O)cc4O[C@@H]3c3cc(O)c(O)c(O)c3)cc2O)nn1", "note": "[Compound 5a, (2R,3R)-5,7-dihydroxy-2-(3,4,5-trihydroxyphenyl)chroman-3-yl 4-((1-(2-(2-aminoethoxy)ethyl)-H-1,2,3-triazol-4-yl)methoxy)-3,5-dihydroxybenzoate]", "values": [{"measurement": "inhibition of seeding by crude AD brain extract, Ferumoxytol conjugated analogs", "setting": "crude AD brain extract", "value": "< 50", "unit": "%"}]}
